One assay concerns the target T1, slc26a3 (Mus musculus, UniProt Q9WVC8).
T1 construct: expressed in transfected cells; host or cells: FRT cells coexpressing YFP
T1 sequence (Q9WVC8 1-757): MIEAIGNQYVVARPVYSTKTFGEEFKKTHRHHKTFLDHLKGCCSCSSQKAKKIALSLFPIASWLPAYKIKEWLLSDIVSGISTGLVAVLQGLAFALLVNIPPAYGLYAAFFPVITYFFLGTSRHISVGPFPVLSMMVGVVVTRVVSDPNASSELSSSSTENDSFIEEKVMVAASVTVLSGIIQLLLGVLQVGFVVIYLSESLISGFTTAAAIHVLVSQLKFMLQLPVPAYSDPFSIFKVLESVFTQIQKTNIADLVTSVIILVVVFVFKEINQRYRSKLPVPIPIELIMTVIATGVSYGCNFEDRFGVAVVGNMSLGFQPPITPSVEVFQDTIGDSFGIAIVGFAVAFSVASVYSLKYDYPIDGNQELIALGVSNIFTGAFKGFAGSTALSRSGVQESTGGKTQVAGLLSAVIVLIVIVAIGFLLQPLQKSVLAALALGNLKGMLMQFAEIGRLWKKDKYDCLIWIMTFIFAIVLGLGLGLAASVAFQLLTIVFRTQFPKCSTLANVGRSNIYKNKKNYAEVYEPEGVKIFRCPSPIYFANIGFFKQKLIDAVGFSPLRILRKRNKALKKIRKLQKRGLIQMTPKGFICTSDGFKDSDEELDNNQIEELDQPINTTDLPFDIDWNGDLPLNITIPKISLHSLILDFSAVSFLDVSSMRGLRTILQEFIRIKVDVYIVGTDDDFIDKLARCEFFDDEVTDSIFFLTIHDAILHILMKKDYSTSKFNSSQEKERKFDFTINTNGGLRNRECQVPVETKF
Kind of assay: Selectivity: Cl-/I- exchange in FRT cells coexpressing YFP and slc26a3. It counts as cell-based. To be noted: 25 μM. As for the experimental part:
PAT1inh-B01 selectivity was studied by testing its effects on related SLC26A family anion transporters and the Cl^– channel TMEM16A. These measurements used a similar Cl^–/I^– exchange protocol, but FRT cells separately expressed each of the SLC26A family members or TMEM16A. […] PAT1inh-B01 selectivity was also tested by short-circuit current (Isc) in well-differentiated human bronchial epithelial (HBE) cells, which have a complex ion transport mechanism that includes cystic fibrosis transmembrane conductance regulator (CFTR), epithelial Na^+ channel (ENaC), and Ca^+2-activated chloride channels (CaCCs) ([13]). […] Potential PAT1inh-B01 cytotoxicity was studied in FRT cells.
Figure 3 PAT1inh-B01 selectivity and cytotoxicity. […] Cl^–/I^– exchange or I^– influx measured in FRT cells coexpressing YFP and SLC26A isoforms or TMEM16A, with data shown for 25 μM PAT1inh-B01, DMSO vehicle control, and 500 μM niflumic acid (positive control for SLC26A transporters) or 10 μM TMinh-23 (positive control for TMEM16A). […] (C) (left) Short-circuit current (Isc) in well-differentiated HBE cells measured in the absence (top) and presence (bottom) of 25 μM PAT1inh-B01. […]
YFP-based cellular assays of slc26a3, slc26a4, SLC26A9, and TMEM16A function were performed as described previously ([7]). […] The activities of ENaC, CFTR, and CaCC were determined using well-differentiated HBE cells as described previously ([13]). […]

In assay [1] the test system is mouse distal colonic closed loops. In words: Closed distal colonic loop fluid absorption. To be noted: 30 μM luminal. It counts as in vivo. Here is the method: For fluid absorption studies in colon, mice were given free access to 5% dextrose in water but not solid food for 48 hours. Mice were treated with 500 μL mineral oil twice a day rectally (final dose 16 h before surgery) during this period to evacuate the colon. Closed distal colonic loops (length 1.5–2 cm, 1 loop per mouse) were isolated as described previously ([7]). Loops were injected with 100 μL PBS with 30 μM PAT1inh-B01, 10 μM DRAinh-A270, or 10 μM tenapanor (or vehicle). In some experiments, 30 μM PAT1inh-B01 and 10 μM DRAinh-A270 were used together. Colonic loops were removed at 0 and 60 minutes (in separate mice), and loop length and weight were measured to quantify fluid absorption.

As to `Cc1c(Br)c(C(F)(F)F)nn1CC(=O)N1CCc2nc3cc(-c4ccccc4)[nH]n3c(=O)c2C1` [PAT1inh-B01], the “inhibition of slc26a3” value on slc26a3 is “did not significantly inhibit”. In assay [1], the “effect on colonic fluid absorption (loop weight-to-length ratio)” value is “did not inhibit”.
